“Also recorded” adds a separate entry of the source.
Tests used:
A549 cells = assay: CytoSelect cell invasion assay, A549; type: cell-based, human
Experimental: (§1) Invasion assays were performed using the CytoSelect Cell Invasion Assay (Cell Biolabs, Inc., San Diego, Calif.). Briefly, the basement membrane layer of the cell culture inserts were rehydrated in 300 μl serum-free RPMI-1640 and 2×10^6 cells were seeded into the upper sections of the chambers in serum-free RPMI-1640 with or without TGFβ. The lower wells of the invasion plates were filled with 500 μl RPMI supplemented with 10% FBS. Non-invasive cells were removed from the upper chamber and invasive cells were stained with crystal violet cell stain solution. Invasive cells were photographed with a Leica DMR light microscope. Colorimetric quantification was performed by transferring inserts into 200 μl of extraction solution for 10 min and then, transferring to a 96-well microtiter plate. The OD at 560 nm was determined with a plate reader (Supplementary Information FIG. S5a).
(§2) The cancer cell invasion assay described in Example 1 above was performed to examine the ability of γ-secretase inhibitors in suppressing cancel cell invasion. Prostate cancers cells PC-3U, human lung carcinoma cells A549, and human breast carcinoma cells MDA-MB-231 were cultured following routine procedures, treated with TGFβ in the presence of absence of L-685,458, a γ-secretase inhibitor. Cells were visualized by staining with a crystal violet cell staining solution.

MDA-MB-231 cells = assay: CytoSelect cell invasion assay, MDA-MB-231; type: cell-based, human
Experimental: as §1, §2

PC-3U cells = assay: CytoSelect cell invasion assay, PC-3U; type: cell-based, human
Experimental: as §1
The cancer cell invasion assay described in Example 1 above was performed to examine the ability of γ-secretase inhibitors in suppressing cancel cell invasion. Prostate cancers cells PC-3U, human lung carcinoma cells A549, and human breast carcinoma cells MDA-MB-231 were cultured following routine procedures, treated with TGFβ in the presence of absence of L-685,458, a γ-secretase inhibitor. Cells were visualized by staining with a crystal violet cell staining solution. […]

TβRI = assay: Formation of TβRI ICD (immunoblotting of cell lysates); type: cell-based, human; details: PC-3U cells
Experimental: (§3) Protein-G Sepharose was obtained from GE Healthcare.; LumiLight Western blotting substrate and Pefabloc were from Roche, PageRuler prestained protein ladder was from Fermentas; and TAPI-2 was from BIOMOL Research Laboratories Inc. TAPI-2 was used at concentrations of 10-20 μM. The p38α/β inhibitor (SB203580) was purchased from Calbiochem (it was used at a concentration of 10 μM). PKCζ pseudosubstrate was from TOCRIS Bioscience and used at concentrations of 10-50 μM. The PKCζ activator, phorbol 12-myristate 13-acetate (PMA, referred to as TPA in our paper), and a TβRI inhibitor (SB505124) were purchased from Sigma. The SB505124 inhibitor was used at a concentration of 10 μM and the TPA at a concentration of 100 nM. The general PKCζ inhibitor, GF109203X, was purchased from Sigma. All inhibitors were added to cells 1 h before TGFβ stimulation.
(§4) Cells were starved for 12-18 h and then stimulated with TGFβ for the indicated time periods, washed twice in ice-cold PBS, and lysed in ice-cold lysis buffer (150 mM NaCl, 50 mM Tris pH 8.0, 0.5% (v/v) deoxycholate, 1% (v/v) NP40, 10% (v/v) glycerol, 1 mM aprotinin, 1 mM Pefabloc and 2 mM sodium orthovanadate). After centrifugation, supernatants were collected and protein concentrations were determined using the bicinchoninic acid (BCA) protein measurement kit (Nordic Biolabs). Equal volumes were subjected to immunoprecipitation. […]

TβRI ICD = assay: Nuclear accumulation of TβRI ICD (immunofluorescence, nuclear fractionation); type: cell-based, human
Experimental: Before TGF-β1 stimulation, the cells were starved for 12-18 h in medium supplemented with 1% FBS. In all assays, the cells were stimulated with 10 ng/ml TGFβ1 (R&D System, UK).
as §3
as §4, with “immunoprecipitation. Equal amounts of protein from total cell lysates and immunoprecipitations were subjected to electrophoresis on 6%, 10%, 12%, or 4-12% gradient SDS-polyacrylamide gels (SDS-PAGE), blotted on to polyvinylidine difluoride membranes, and subjected to immunoblotting, as previously described.^23 The […] cell lysate from Santa Cruz was used as a positive control for TβRI.” for “immunoprecipitation.”

PKCζ = molecular target: T1, PKCζ (Homo sapiens, UniProt Q05513); assay: Activation of PKCζ (immunoblotting for p-PKCζ); type: cell-based; details: PC-3U cells
T1 construct: Cell lysates from PC-3U cells treated with TGFβ or TPA were subjected to immunoblotting with an antiserum against pPKCζ; endogenous in cells; host or cells: PC-3U (human prostate cancer cell line)
T1 sequence (Q05513 1-592): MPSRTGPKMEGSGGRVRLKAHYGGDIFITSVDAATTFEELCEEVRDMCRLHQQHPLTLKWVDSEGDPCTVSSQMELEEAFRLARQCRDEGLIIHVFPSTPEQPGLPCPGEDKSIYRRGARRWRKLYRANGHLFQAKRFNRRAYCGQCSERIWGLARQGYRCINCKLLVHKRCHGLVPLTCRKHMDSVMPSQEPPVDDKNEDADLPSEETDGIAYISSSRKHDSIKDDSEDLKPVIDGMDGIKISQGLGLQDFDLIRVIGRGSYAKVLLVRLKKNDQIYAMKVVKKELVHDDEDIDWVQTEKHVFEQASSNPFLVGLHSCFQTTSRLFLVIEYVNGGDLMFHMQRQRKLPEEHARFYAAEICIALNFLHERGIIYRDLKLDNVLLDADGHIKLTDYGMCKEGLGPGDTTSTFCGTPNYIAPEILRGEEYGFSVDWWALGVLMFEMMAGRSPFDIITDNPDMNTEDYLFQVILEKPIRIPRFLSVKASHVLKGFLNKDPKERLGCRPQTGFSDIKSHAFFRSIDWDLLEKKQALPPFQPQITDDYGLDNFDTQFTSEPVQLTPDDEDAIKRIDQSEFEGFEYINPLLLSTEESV
Experimental: Cells were starved for 12-18 h and then stimulated with TGFβ for the indicated time periods, washed twice in ice-cold PBS, and lysed in ice-cold lysis buffer (150 mM NaCl, 50 mM Tris pH 8.0, 0.5% (v/v) deoxycholate, 1% (v/v) NP40, 10% (v/v) glycerol, 1 mM aprotinin, 1 mM Pefabloc and 2 mM sodium orthovanadate). After centrifugation, supernatants were collected and protein concentrations were determined using the bicinchoninic acid (BCA) protein measurement kit (Nordic Biolabs). Equal volumes were subjected to immunoprecipitation. Equal amounts of protein from total cell lysates and immunoprecipitations were subjected to electrophoresis on 6%, 10%, 12%, or 4-12% gradient SDS-polyacrylamide gels (SDS-PAGE), blotted on to polyvinylidine difluoride membranes, and subjected to immunoblotting, as previously described.^23 The […] cell lysate from Santa Cruz was used as a positive control for TβRI. The ubiquitination assays, immunofluorescence assays, and transient transfections were performed as previously described.^5,23,24 Photomicrographs were obtained with a Zeiss 510 Meta (Carl Zeiss Microimaging, Inc.) equipped with a digital camera (RET-EXi-F-M-12-C) from Q-imaging.

Molecule: CC(C)C[C@H](NC(=O)[C@H](Cc1ccccc1)C[C@@H](O)[C@H](Cc1ccccc1)NC(=O)OC(C)(C)C)C(=O)N[C@@H](Cc1ccccc1)C(N)=O [L-685,458]
- TGFβ-induced cancer cell invasion (A549 cells): significantly suppressed
- TGFβ-induced cancer cell invasion (MDA-MB-231 cells): significantly suppressed
- TGFβ-induced cancer cell invasion (PC-3U cells): significantly suppressed

Molecule: Cc1cccc(-c2[nH]c(C(C)(C)C)nc2-c2ccc3c(c2)OCO3)n1 [SB505124]
- formation of the TβRI ICD (TβRI): no major effect

Molecule: CC(C)C[C@H](CC(=O)NO)C(=O)N[C@H](C(=O)N[C@@H](C)C(=O)NCCN)C(C)(C)C [TAPI-2]
- nuclear translocation/accumulation of TβRI ICD in response to TGFβ stimulation (TβRI ICD; PC-3U cells, TGFβ, inhibitor added 1 h before TGFβ, V22 antibody): reduction; also recorded: partly prevented

Molecule: phorbol 12-myristate 13-acetate [TPA]
- activation of PKCζ (p-PKCζ) (PKCζ): activated
- ICD in the nuclear fraction (TβRI ICD; HA-caTβRI-expressing PC-3U cells treated with TPA): accumulated in the nuclear fraction
- nuclear accumulation of endogenous TβRI ICD, immunofluorescence (TβRI ICD; PC-3U cells treated with TPA alone, 6 h): led to nuclear accumulation

Reference: patent US9296818B2, “Cleavage inhibitors of transforming growth factor beta type I receptor and uses thereof in cancer therapy” (priority 2011, dated 2016)
